“Also recorded” adds a separate entry of the source.
Assays:
[1] = tested on: wildtype Drosophila fruit flies; assay: Toxicity of dimebon in wild type Drosophila (eclosion number and timing); assay type: in vivo; conditions: FIG. 1
Experimental: Dimebon was evaluated for toxicity levels in wildtype Drosophila fruit flies. Dimebon was administered daily at doses ranging from 10 μM to 1 mM to explore its toxicity. An untreated control group was also studied in this experiment. The concentrations given were concentrations of dimebon in the food that animals drink/eat ad libitum. The food consisted of cornmeal (61.2 g), dextrose (129.4. g), yeast (32.4 g) and agar (9.3 g) in 1 liter of water. Concentrated compounds were added to melted agar food cooled to just above the point of setting (about 40° C.), mixed and dispensed.
About 500 wild type Drosophila eggs were collected on grape juice plates for 20 hours, washed with distilled water and transferred 100 per vial to grow at 25 degrees C. The adult progeny were scored after eclosing (emerging from the pupal case) beginning 10 days later to assess developmental delay and toxicity. The criteria used for toxicity were the number (%) of animals that eclose and the time of the eclosing. For example, fewer animals may emerge from the pupal case if a drug is toxic or the same number of animals may eclose but more slowly than the untreated control group.
The toxicity test employed five concentrations (10 μM, 30 μM, 100 μM, 300 μM, 1 mM) plus an untreated control and was repeated with five sets of flies. […]

[2] = tested on: transgenic Drosophila engineered to express the mutant huntingtin protein in all their neurons; assay: Inhibition of mutant huntingtin-induced neurodegeneration of photoreceptor neurons (pseudopupil method); assay type: in vivo; conditions: for rescue of photoreceptor neurons compared to untreated controls: FIG. 2; for suppression of photoreceptor neuron degeneration, retest: FIG. 3
Experimental: Dimebon was administered to one group of transgenic Drosophila engineered to express the mutant huntingtin protein in all their neurons. This was accomplished by cloning a foreign gene into transposable p-element DNA vectors under control of a yeast upstream activator sequence that is activated by the yeast GAL4 transcription factor. These promoter fusions were injected into fly embryos to produce transgenic animals. The foreign gene is silent until crossed to another transgenic strain of flies expressing the GAL4 gene in a tissue specific manner. The Elav>Gal4 which expresses the transgene in all neurons from birth until death was used in the experiments described.
For compound testing, 20-30 Httex1pQ93 virgins were mated to elav>Gal4 males and eggs were collected for about 20 hours at 25° C. and dispensed into vials (expected about 70% lethality from Htt effects). Upon eclosion, at least 80, 0-8 hour old flies were harvested and place on drug-containing food (20 eclosed adults per vial) and scored when 7 days old. Inhibitor-containing food was prepared just before tester flies began to emerge.
The two types of transgenic animals were crossed in order to collect enough closely matched aged controls to study. The crossed aged-matched adults (about 20 per dosing group) were placed on drug-containing food for 7 days. Animals were transferred to fresh food daily to minimize any effects caused by instability of the compounds. Survival was scored daily. The average number of photoreceptors at day zero was determined by scoring 7-10 of the newly eclosed tester siblings within six hours of eclosing. This established the baseline of degeneration at the time of exposure to drug. At day 7, animals were sacrificed and the number of photoreceptor neurons surviving was counted. […] For pseudopupil analysis, flies were decapitated and the heads are mounted in a drop of nail polish on a microscopic slide. The head was then covered with immersion oil and light is projected through the eye of the fly using a Nikon EFD-3/Optiphot-2 compound microscope with a 50× oil objective.

[3] = tested on: transgenic Drosophila engineered to express the mutant huntingtin protein in all their neurons; assay: Climbing assay (motor function) in Drosophila model of Huntington's disease; assay type: in vivo
Experimental: The motor function of Drosophila obtained as described in the examples above was assessed by exploiting the strong negative geotropism of flies to climb upwards when they are tapped to the bottom of a vial. See, Le Bourg and Lint (1992) Hypergravity and aging in Drosophila melanogaster. 4. […] activity. Gerontology 38, 59-64. Animals were placed in a graduated vessel (e.g., a measuring cylinder). The distance climbed in 10 seconds was measured for each animal over 3 trials with a 5 minute rest period. In a separate experiment using tall thin plastic tubes rather than glass vials, the distance climbed in 30 seconds was also measured. Animals were scored for outcome without knowledge of treatment group. Flies were tested for functional rescue using a behavior assay (climbing assay) where the distance climbed was measured. […] In this assay, climbing was scored blind and each animal was given 3 trials that were then averaged. The climbing of 7 day old animals reared on 0, 10, 100 or 1,000 μM containing food was compared as was the climbing of animals on the day of eclosion. Two trials were performed. In the first, the ability to climb in large glass vials was monitored over 10 seconds. […] The second trial was similar to the first except that animals were tested in tall thin plastic tubes for climbing over 30 seconds. […] The data from the two independent climbing trials are plotted as individual data points in FIGS. 6A and 6B. A higher statistical power (e.g., 0.8) given the observed standard deviations and differences of the means may be achieved by doubling the size of the experiment for the highest concentration and increasing about 10 fold for the lower concentrations.

[4] = tested on: transgenic Drosophila engineered to express the mutant huntingtin protein in all their neurons; conditions: cited from earlier work

| SMILES | timing of emergence slowed ([1]; 1 mM dose) | toxicity (number of animals that eclose and time of eclosing) ([1]; 10 to 300 μM in the food, below 1 mM, dihydrochloride) | rescue of photoreceptor neurons compared to untreated controls ([2]; 10 μM, 7 days) | suppression of photoreceptor neuron degeneration, retest ([2]; 100 μM vs zero drug controls, dihydrochloride) | rescue of photoreceptor neurons compared to untreated controls ([2]; 100 μM, 7 days on drug-containing food) | rescue of photoreceptor neurons compared to untreated controls ([2]; 1 mM, 7 days) | previously measured optimum concentration for photoreceptor rescue ([2]; concentration in food) | protection of photoreceptors, dose dependence ([2]; day 7, pseudopupil scoring) | suppression of photoreceptor neuron degeneration, retest ([2]; higher doses (300 or 1,000 μM) vs zero drug controls) | climbing behavior, distance climbed in 10 seconds ([3]; 1 mM (1000 μM), 7 day old animals, glass vials, FIG. 5, dihydrochloride) | raw climbing data, FIG. 6 panel A ([3]; 1 mM vs D7ND (Day 7 no drug), legend says measured over 30 seconds) | climbing behavior, distance climbed in 30 seconds ([3]; 10, 100 or 1,000 μM, 7 day old animals, tall thin plastic tubes) | rescue of photoreceptor neurons (historical positive control) [4] |
| --- | --- | --- | --- | --- | --- | --- | --- | --- | --- | --- | --- | --- | --- |
| Cc1ccc2c(c1)c1c(n2CCc2ccc(C)nc2)CCN(C)C1.Cl.Cl [dimebon, 2,8-dimethyl-5-(2-(6-methyl-3-pyridyl)-ethyl)-2,3,4,5-tetrahydro-1H-pyrido[4,3-b]indole dihydrochloride] | approximately 1 day | generally well tolerated; also recorded: no significant toxicity | lesser but still apparent rescue of neurons | significant improvement; also recorded: significant rescue | statistically significant (p=0.0014) rescue of neurons | still appeared to cause neuronal rescue, but to a lesser extent than the 100 μM or 10 μM dimebon doses | 100 µM | protect photoreceptors in a dose-dependant manner | no statistically demonstrable improvement | significant difference between the control and 1000 μM; also recorded: statistically significant improvement in climbing | statistical difference between D7ND and 1 mM | no statistically demonstrable difference between treated and control groups |  |
| C[C@@H](N)[C@H]1CC[C@H](C(=O)Nc2ccncc2)CC1 [Y-27632] |  |  |  |  |  |  |  |  |  |  |  |  | strongly rescuing |

— patent US20070117835A1, “Methods and compositions for treating Huntington's disease” (priority 2005, published 2007)
